Experimental findings from ChEMBL document CHEMBL1201862, “PubChem BioAssay data set” (2004) are described below.

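Growth conditions: 96-well plates. Treatment: test compound, 48 hours, 5 concentrations. Analysis: linear interpolation between bracketing concentrations; unreached endpoints set to highest concentration. GI50 marks 50% less growth.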 The source made the active and inactive calls. Rule as the data show it: active = GI50 up to about 1.1 µM and inactive = higher.

Some test systems named below: BT-549; CCRF-CEM; COLO 205; HCT-15; Hs-578T; KM12; MOLT-4; Malme-3M; NCI-H23; OVCAR-5; RPMI-8226; SF-539; SK-MEL-2; SK-OV-3; SR; SW-620; TK-10; UACC-257.
Holding throughout (experiment): NCI-60 cell line screen, 48 h

Regarding `CSc1nc(C#N)c(/N=C\N(C)C)n1C`, the GI50 with BT-549 is > 100 µM (inactive); in the assay on CCRF-CEM it was > 100 µM (inactive); with COLO 205 it was > 100 µM (inactive); in the assay on HCT-15, above 100 µM; with Hs-578T it was > 100 µM (inactive); with KM12, > 100 µM (inactive). Further, the GI50 in the assay with MOLT-4, in the assay with Malme-3M, in the assay on NCI-H23, in the assay on OVCAR-5, with RPMI-8226 and in the assay with SF-539 was > 100 µM (inactive) each time. The GI50 in the assay with SK-MEL-2, in the assay with SK-OV-3, in the assay with SR, in the assay on SW-620, in the assay with TK-10 and in the assay with UACC-257 was > 100 µM (inactive) in each case.

Consider `CC1C(O)Oc2cc3c(cc2C1c1ccccc1O)OCO3` (stereo not drawn), for which the GI50 in the assay with BT-549 was 34.9 µM (inactive); with CCRF-CEM it was 16.7 µM (inactive); in the assay on COLO 205, 16.2 µM (inactive); with HCT-15, 33.1 µM; with Hs-578T, 11.5 µM (inactive); in the assay on KM12, 32.1 µM (inactive). For the same compound, the GI50 is 19.3 µM (inactive) in the assay with MOLT-4; 25.3 µM (inactive) in the assay on Malme-3M; 46.1 µM (inactive) in the assay on NCI-H23; 45.7 µM (inactive) in the assay on OVCAR-5; 16.7 µM (inactive) with RPMI-8226; 27.9 µM (inactive) in the assay with SF-539. The GI50 with SK-MEL-2 was 25.9 µM (inactive); in the assay with SK-OV-3, 39.9 µM (inactive); in the assay on SR it was 4.65 µM (inactive); with SW-620, 39.1 µM (inactive); in the assay on TK-10, 27.4 µM (inactive); with UACC-257, 30.1 µM (inactive).

Turning to `C=C(Cl)C(Cl)(CBr)CCCC(C)(C)Cl` (stereo not drawn), the GI50 is 52 µM (inactive) with BT-549; > 33.7 µM (inactive) with CCRF-CEM; 7.5 µM (inactive) in the assay with COLO 205; 26.3 µM in the assay with HCT-15; 2.98 µM (inactive) in the assay with Hs-578T; 1.7 µM (inactive) in the assay with KM12. In addition, the GI50 with MOLT-4 is > 55.6 µM (inactive); in the assay on Malme-3M, 18 µM (inactive); in the assay with NCI-H23, 45 µM (inactive); in the assay on OVCAR-5, 18.4 µM (inactive); with RPMI-8226, 1.28 µM (inactive); in the assay with SF-539 it was 2.47 µM (inactive). In addition, the GI50 in the assay with SK-MEL-2 was 11.4 µM (inactive); in the assay with SK-OV-3, > 100 µM (inactive); with SR, > 53 µM (inactive); with SW-620, 20.4 µM (inactive); in the assay on TK-10, 2.26 µM (inactive); in the assay with UACC-257, 3.15 µM (inactive).

Consider `Nc1ncnc2c1ncn2[C@@H]1C[C@H](NO)[C@@H](O)[C@H]1O`, for which the GI50 in the assay on BT-549 is > 100 µM (inactive); in the assay on CCRF-CEM, 22.3 µM (inactive); with COLO 205, > 100 µM (inactive); in the assay with HCT-15, 16.4 µM; with Hs-578T, > 100 µM (inactive); in the assay with KM12 it was 9.25 µM (inactive). The GI50 in the assay with MOLT-4 was 83.4 µM (inactive); with Malme-3M it was > 100 µM (inactive); in the assay on NCI-H23 it was > 100 µM (inactive); with OVCAR-5, > 100 µM (inactive); in the assay with RPMI-8226, 10.8 µM (inactive); in the assay on SF-539, 33.5 µM (inactive). For the same compound, the GI50 in the assay with SK-MEL-2 was > 100 µM (inactive); with SK-OV-3 it was > 100 µM (inactive); in the assay on SR, 3.55 µM (inactive); in the assay on SW-620 it was 26.9 µM (inactive); in the assay with TK-10, > 100 µM (inactive); in the assay on UACC-257, > 100 µM (inactive).

For `COc1ccc(-c2cn3c(n2)sc2cc(C)ccc23)cc1`, the GI50 with BT-549 was 12.1 µM (inactive); in the assay on CCRF-CEM it was 19.8 µM (inactive); with COLO 205, 5.51 µM (inactive); with HCT-15, 38.5 µM; with Hs-578T, 18.2 µM (inactive); in the assay with KM12 it was 5.05 µM (inactive). Also, the GI50 is 17.5 µM (inactive) with MOLT-4; 37.8 µM (inactive) in the assay on Malme-3M; 9.29 µM (inactive) with NCI-H23; 43.2 µM (inactive) in the assay with OVCAR-5; 3.93 µM (inactive) in the assay with RPMI-8226; 13.6 µM (inactive) with SF-539. Moreover, the GI50 with SK-MEL-2 was 14.3 µM (inactive); in the assay with SK-OV-3 it was 22.1 µM (inactive); in the assay on SR it was 4.86 µM (inactive); in the assay with SW-620, 25.8 µM (inactive); with TK-10, 22.1 µM (inactive); in the assay with UACC-257, 3.9 µM (inactive).

Regarding `CC1(CNCc2ccccc2)CC(CCc2ccccc2)N(C(=O)c2ccc([N+](=O)[O-])cc2)C1Cc1ccc(O)cc1` (stereo not drawn), the GI50 was 16.1 µM (inactive) with BT-549; 23.2 µM (inactive) in the assay with CCRF-CEM; 6.5 µM (inactive) in the assay with COLO 205; 12.6 µM in the assay on HCT-15; 13.5 µM (inactive) with Hs-578T; 15.6 µM (inactive) in the assay on KM12. Besides, the GI50 in the assay with MOLT-4 was 13.2 µM (inactive); in the assay with Malme-3M it was 19.2 µM (inactive); in the assay on NCI-H23 it was 10.3 µM (inactive); in the assay on OVCAR-5 it was 17.6 µM (inactive); with RPMI-8226, 17.3 µM (inactive); in the assay on SF-539, 17.1 µM (inactive). The GI50 with SK-MEL-2 was 13.6 µM (inactive); in the assay on SK-OV-3, 17.1 µM (inactive); with SR, 6.75 µM (inactive); in the assay with SW-620 it was 21.5 µM (inactive); in the assay on TK-10, 16.4 µM (inactive); with UACC-257, 12.4 µM (inactive).

Consider `CC1(C)CCC(=O)NC1CC(=O)CC1NC(=O)CCC1(C)C` (stereo not drawn), for which the GI50 in the assay on BT-549 is > 100 µM (inactive); in the assay on CCRF-CEM it was > 100 µM (inactive); in the assay on COLO 205, > 100 µM (inactive); in the assay on HCT-15 it was above 100 µM; in the assay on Hs-578T, > 100 µM (inactive); with KM12, > 100 µM (inactive). Moreover, the GI50 in the assay with MOLT-4, in the assay with Malme-3M, in the assay with NCI-H23, with OVCAR-5, in the assay on RPMI-8226 and with SF-539 was > 100 µM (inactive) throughout. Also, the GI50 in the assay on SK-MEL-2 is > 100 µM (inactive); in the assay on SK-OV-3, > 100 µM (inactive); in the assay on SR it was 7.08 µM (inactive); with SW-620, > 100 µM (inactive); with TK-10, > 100 µM (inactive); with UACC-257, > 100 µM (inactive).

For the compound `O=Cc1[nH]c(=O)[nH]c(=O)c1CCl`, the GI50 in the assay on BT-549 was > 100 µM (inactive); in the assay on CCRF-CEM it was > 52.7 µM (inactive); in the assay on COLO 205, > 62.7 µM (inactive); with HCT-15, above 65.8 µM; with Hs-578T, > 100 µM (inactive); in the assay with KM12, > 100 µM (inactive). Moreover, the GI50 with MOLT-4 is > 96.8 µM (inactive); with Malme-3M, > 100 µM (inactive); in the assay with NCI-H23, > 100 µM (inactive); in the assay on OVCAR-5 it was > 100 µM (inactive); in the assay on RPMI-8226, > 48.6 µM (inactive); in the assay with SF-539 it was > 63.2 µM (inactive). For the same compound, the GI50 is > 90.2 µM (inactive) in the assay on SK-MEL-2; > 100 µM (inactive) in the assay on SK-OV-3; 30.6 µM (inactive) in the assay on SR; 38.7 µM (inactive) with SW-620; > 100 µM (inactive) in the assay on TK-10; > 100 µM (inactive) in the assay with UACC-257.

In the case of `COc1ccc2c(Cl)cc(NC(=S)Nc3ccccc3)nc2c1`, the GI50 in the assay with BT-549 is 39 µM (inactive); with CCRF-CEM, < 0.01 µM (active); in the assay with COLO 205 it was 31.2 µM (inactive); with HCT-15, 27.9 µM; in the assay on Hs-578T, 14.4 µM (inactive); in the assay on KM12, 18.7 µM (inactive). In addition, the GI50 in the assay on MOLT-4 is 25.2 µM (inactive); with Malme-3M it was 15.2 µM (inactive); in the assay with NCI-H23 it was 23.4 µM (inactive); in the assay on OVCAR-5, 30.1 µM (inactive); in the assay on RPMI-8226 it was 21.2 µM (inactive); in the assay with SF-539, 32.6 µM (inactive). Further, the GI50 is 22.4 µM (inactive) in the assay with SK-MEL-2; 26 µM (inactive) with SK-OV-3; 26.2 µM (inactive) with SR; 26.4 µM (inactive) in the assay on SW-620; 57.7 µM (inactive) in the assay with TK-10; 60.8 µM (inactive) in the assay on UACC-257.

Consider `Cn1c2ccccc2c2ccc3c(c21)C(=O)c1ccc2c4ccccc4n(C)c2c1C3=O`, for which the GI50 with BT-549 was > 100 µM (inactive); in the assay with CCRF-CEM, > 100 µM (inactive); with COLO 205, > 100 µM (inactive); in the assay with HCT-15 it was above 100 µM; in the assay with Hs-578T, > 100 µM (inactive); in the assay with KM12, > 100 µM (inactive). The GI50 is > 100 µM (inactive) in the assay with MOLT-4; 87.5 µM (inactive) in the assay on Malme-3M; > 100 µM (inactive) with NCI-H23; > 100 µM (inactive) in the assay on OVCAR-5; > 100 µM (inactive) with RPMI-8226; > 100 µM (inactive) with SF-539. Besides, the GI50 with SK-MEL-2, in the assay on SK-OV-3, in the assay on SR, with SW-620, with TK-10 and in the assay on UACC-257 was > 100 µM (inactive) each time.

Take `O=C(/C=C/c1ccc(O)c(O)c1)NC(COC(=O)/C=C/c1ccc(O)c(O)c1)C(=O)O` (stereo not drawn): the GI50 with BT-549 was > 100 µM (inactive); with CCRF-CEM, 37.8 µM (inactive); in the assay on COLO 205, > 100 µM (inactive); in the assay with HCT-15, above 100 µM; with Hs-578T, > 100 µM (inactive); with KM12 it was > 100 µM (inactive). Moreover, the GI50 in the assay on MOLT-4, in the assay on Malme-3M, in the assay with NCI-H23, in the assay on OVCAR-5, with RPMI-8226 and in the assay with SF-539 was > 100 µM (inactive) throughout. Also, the GI50 in the assay with SK-MEL-2, in the assay with SK-OV-3, in the assay on SR, in the assay on SW-620, in the assay on TK-10 and in the assay with UACC-257 was > 100 µM (inactive) each time.
